Series [1] in a line: Cytotoxicity in MT4 cells (mock-infected) in the antiviral assay. Conditions: human. Type of series: cell-based. The method, then: (§1) For the antiviral assay utilizing MT4 cells, 0.4 μL of […] test concentration of 3-fold serially diluted compound in DMSO was added to 40 μL of cell growth medium (RPMI 1640, 10% FBS, 1% penicilline/Streptomycine, 1% L-Glutamine, 1% HEPES) in each well of 384-well assay plates (10 concentrations) in quidruplicate. 1 mL aliquots of 2×10^6 MT4 cells are pre-infected for 1 and 3 hours respectively at 37° C. with 25 μL (MT4) or of either cell growth medium (mock-infected) or a fresh 1:250 dilution of an HIV-IIIb concentrated ABI stock (0.004 m.o.i. for MT4 cells). Infected and uninfected cells are diluted in cell growth medium and 35 μL of 2000 (for MT4) cells is added to each well of the assay plates. Assay plates were then incubated in a 37° C. incubator. After 5 days of incubation, 25 μL of 2× concentrated CellTiter-Glo™ Reagent (catalog #G7573, Promega Biosciences, Inc., Madison, WI) was added to each well of the assay plate. Cell lysis was carried out by incubating at room temperature for 2-3 minutes, and then chemiluminescence was read using the Envision reader (PerkinElmer).

Another series concerns HIV-IIIb. The series is described as follows: Antiviral assay in MT4 cells. Type of series: cell-based. Conditions: Human immunodeficiency virus 1, 120 h; MT4 cells infected with HIV-IIIb (0.004 m.o.i.), 5 days incubation, CellTiter-Glo; average over time; read-out: EC50 nM in MT-4. The method, then: as §1
A general note: In ATP-based viability assays light output follows the ATP content of the culture.

The mark [2] stands for this setting: MT4 cells (mock-infected), MT4 cells, 5 days incubation, CellTiter-Glo, average over time, read-out: CC50 nM in MT-4.

Where two headings read alike, the source gives them in different places.

As usually defined, the CC50 is the concentration at which the toxic effect on the cells reaches its halfway point. As a reminder, the EC50 is the concentration needed to bring the measured effect to its halfway point.

For `O=C(NCc1c(F)cc(F)cc1F)c1cn2c(c(O)c1=O)C(=O)N1C[C@H]3CCC[C@@]1(C3)C2` [Compound 7], the CC50 at 5 days in series [1] (setting [2]) was determined as 13000 nM. The EC50 in the series with HIV-IIIb was determined as 2.8 nM.

As for `O=C(NCc1ccc(F)cc1F)c1cn2c(c(O)c1=O)C(=O)N1C[C@@H]3CC[C@]1(C3)C2` [Compound 10, (3R,12aS)—N-(2,4-difluorobenzyl)-7-hydroxy-6,8-dioxo-2,3,4,6,8,12-hexahydro-1H-3,12a-methanodipyrido[1,2-a:1′,2′-d]pyrazine-9-carboxamide], in series [1] (setting [2]), the 50% cytotoxic concentration (CC50) at 5 days amounted to 24000 nM. Further, the EC50 in the series with HIV-IIIb turned out to be 2.3 nM.

Take `O=C(NCc1ccc(F)cc1F)c1cn2c(c(O)c1=O)C(=O)N1C[C@H]3CC[C@@]1(C3)C2` [Compound 11]: the CC50 at 5 days in series [1] (setting [2]) was determined as 27900 nM. Besides, the 50% effective concentration (EC50) in the series on HIV-IIIb amounted to 3.2 nM.

Take `C[C@@]12CCC[C@]3(Cn4cc(C(=O)NCc5c(F)cc(F)cc5F)c(=O)c(O)c4C(=O)N3C1)C2` [Compound 9]: in series [1] (setting [2]), the 50% cytotoxic concentration (CC50) at 5 days is 8660 nM. Moreover, the EC50 with HIV-IIIb was 1.4 nM.

`O=C(NCc1ccc(F)cc1F)c1cn2c(c(O)c1=O)C(=O)N1C[C@H]3C[C@]1(C2)C3` [Compound 1]: the CC50 at 5 days in series [1] (setting [2]) is 49900 nM. Further, in the series on HIV-IIIb, the EC50 is 3.5 nM.

`O=C(NCc1ccc(F)cc1F)c1cn2c(c(O)c1=O)C(=O)N1C[C@H]3CC[C@@]1(CC3)C2` [Compound 2]: the CC50 at 5 days in series [1] (setting [2]) was 53200 nM. In addition, the concentration for a half-maximal effect (EC50) in the series with HIV-IIIb stood at 4.4 nM.

For the compound `O=C(NCc1c(F)cc(F)cc1F)c1cn2c(c(O)c1=O)C(=O)N1C[C@H]3CC[C@@]1(C3)C2` [Compound 12], in series [1] (setting [2]), the CC50 at 5 days was 53200 nM. In the series with HIV-IIIb, the EC50 is 3.2 nM.

For the compound `C[C@@H](NC(=O)c1cn2c(c(O)c1=O)C(=O)N1C3CCC1(CC3)C2)c1c(F)cc(F)cc1F` [Compound 14], the half-maximal cytotoxic concentration (CC50) at 5 days in series [1] (setting [2]) was 13200 nM. In addition, the EC50 with HIV-IIIb worked out at 6.2 nM.

Consider `O=C(NCc1ccc(F)cc1F)c1cn2c(c(O)c1=O)C(=O)N1C[C@H]3CCC[C@@]1(C3)C2` [Compound 6], for which the CC50 at 5 days in series [1] (setting [2]) came out at 9660 nM. In the series with HIV-IIIb, the EC50 was 2.6 nM.

Consider `O=C(NCc1c(F)cc(F)cc1F)c1cn2c(c(O)c1=O)C(=O)N1C[C@@H]3CCC[C@]1(C3)C2` [Compound 5], for which, in series [1] (setting [2]), the CC50 at 5 days was 10600 nM. Also, the concentration for a half-maximal effect (EC50) in the series with HIV-IIIb was determined as 1.3 nM.

With `O=C(NCc1ccc(F)cc1F)c1cn2c(c(O)c1=O)C(=O)N1C3CCC1(CC3)C2` [Compound 3], the cytotoxic concentration (CC50) at 5 days in series [1] came to 26200 nM. Moreover, the EC50 with HIV-IIIb stood at 1.9 nM.

Regarding `O=C(NCc1c(F)cc(F)cc1F)c1cn2c(c(O)c1=O)C(=O)N1C[C@@H]3CC[C@]1(C3)C2` [Compound 13], the cytotoxic concentration (CC50) at 5 days in series [1] (setting [2]) stood at 24300 nM. Further, the 50% effective concentration (EC50) in the series on HIV-IIIb came out at 1.7 nM.

Regarding `O=C(NCc1ccc(F)cc1F)c1cn2c(c(O)c1=O)C(=O)N1C[C@@H]3CCC[C@]1(C3)C2` [Compound 4], in series [1] (setting [2]), the CC50 at 5 days turned out to be 11000 nM. Also, in the series on HIV-IIIb, the EC50 was 1.6 nM.

Take `O=C(NCc1c(F)cc(F)cc1F)c1cn2c(c(O)c1=O)C(=O)N1C3CCC1(CC3)C2` [Compound 15]: the 50% cytotoxic concentration (CC50) at 5 days in series [1] (setting [2]) came to 24000 nM. Moreover, in the series on HIV-IIIb, the half-maximal effective concentration (EC50) came to 2.3 nM.

Turning to `O=C(NCc1cccc(Cl)c1F)c1cn2c(c(O)c1=O)C(=O)N1C[C@H]3CCC[C@@]1(C3)C2` [Compound 8], the CC50 at 5 days in series [1] (setting [2]) stood at 5300 nM. In addition, the EC50 with HIV-IIIb was 2.3 nM.
